Data published in the SangsterLogP compilation.

| Compound | logP |
| --- | --- |
| Nc1nc(N)nc(NC2CC2)n1 | 0.05 |
| O=c1[nH]c(=O)[nH]c(=O)[nH]1 | -0.47 |
| CCNc1nc(NC(C)C)nc(=O)[nH]1 | 0.76 |
| Nc1nc(N)nc(N)n1 | -0.4 |
| CCN(CC)c1nc(N)nc(Cl)n1 | 2.12 |
| Nc1nc(N)[nH]c(=O)n1 | -0.46 |
| COc1nc(NC(C)C)nc(NC(C)C)n1 | 2.6 |
| Nc1nc(N)nc(Cl)n1 | 0.11 |
| Cc1nnc(-c2ccccc2)c(=O)n1N | 0.98 |

Results, then the compound that gave them:

| logP | Compound |
| --- | --- |
| -0.3 | CCNc1nc(N)nc(=O)[nH]1 |
| 0.83 | CCNc1nc(N)nc(OC)n1 |
| 0.43 | CC(C)(C)Nc1nc(N)[nH]c(=O)n1 |
| 1.93 | COc1nc(N)nc(NC(C)(C)C)n1 |
| 1.5 | CCNc1nc(NC(C)(C)C)nc(=O)[nH]1 |
| 1.78 | CCC(C)Nc1nc(N)nc(Cl)n1 (centres undefined) |
| -0.08 | CC(C)Nc1nc(N)[nH]c(=O)n1 |
| 1.87 | CNc1nc(NC)nc(NC(C)C)n1 |
| 0.35 | CCNc1nc(NCC)[nH]c(=O)n1 |
| 2.57 | CCNc1nc(N=[N+]=[N-])nc(NC(C)C)n1 |
